Experimental data published in patent US9273038B2, “Solid forms of an ion channel modulator” (Gilead Sciences, Inc., priority 2014, dated 2016).
In brackets after ≈: the same amount, converted by molar mass. Like-named read-outs stand apart in the source and are kept apart here.

How the values were obtained:
[1] = Hydrate screen in ethanol/water and isopropanol/water: solubility and relative form stability; format: physicochemical; conditions: for Solubility: 5 days, started from Form I
Method: A hydrate screen starting from Form I was also conducted to evaluate whether hydrates of Compound I exist. The hydrate screen was conducted in ethanol/water (Table 6) and isopropanol/water (Table 7) mixtures, and in both cases, a new polymorph of Compound I was discovered (denoted as Form III).
From the initial hydrate screens presented in Table 6 and Table 7 no apparent trends were observed. In this case, all slurries of Form I in EtOH/water or IPA/water mixtures remained unchanged after 2 weeks (Table 8 and Table 9). Since Form III has been observed previously under the same conditions, it was suspected that the lack of form conversion is mainly due to slow kinetics. […] Attempts to determine the relative stability between Forms I and III at lower water activities were unsuccessful since Form I either was too soluble or oiled out at water activities of 0.8 or below.

[2] = Stable hydrate screen in methanol/water: solubility by TGA; format: physicochemical
Method: Since the hydrate screens from aqueous mixtures of ethanol and isopropyl alcohol were performed in a fairly narrow range of water activity (Aw≧0.8), it was desirable to determine the outcome over a wider range of water activities. An attempt was made to explore this using a system of methanol and water (Table 10). Form I was used as the starting material. […] At and above this Aw only Form I was found.

[3] = Determination of transition temperature between Forms I and II (slurries at 35 and 38° C., pXRD); format: physicochemical; conditions: slurries with and without Form II seeds, iPrOAc/n-heptane
Method: […] describes the set of experiments which concluded that Form I and II are enantiotropic forms and determined the transition temperature. Slurries of Form I with and without Form II seeds were stirred at 35° C. and 38° C. and samples were removed periodically for pXRD analysis. For slurries of Form I aged at 35° C., Form I dominated regardless of whether Form II seeds were present (albeit when Form II seeds were present, the full conversion to Form I took about 5 days) (Table 4). In contrast, slurries of Form I at 38° C. in the presence of Form II seeds rapidly turned over to Form II within 1 day and remained Form II even after the slurry was cooled to 20° C. for isolation. When no Form II seeds were present, Form I slurries remained unchanged even when aged at 38° C.

[4] = Extended stable form screen starting from Form II: solubility of filtrate by TGA; format: physicochemical; conditions: suspension of the solid in solvent, filtrate analysed, 21 °C, organic solvent or mixture, thermodynamic from solid, about 21° C.
Method: These experiments were performed at about 21° C. starting from Form II. After about 3 to 6 days in suspension two experiments produced full conversion from Form II to Form I; one became biphasic; and the rest remained Form II (FIG. 43). Three of the filtrates obtained from isolating the solid phase from samples became biphasic before the solubility could be measured by TGA.
After about 8 to 11 days in suspension the distribution of forms remained unchanged (FIG. 44). All of the filtrates except one became biphasic before solubility could be measured by TGA.

[5] = Dynamic vapor sorption (DVS) analysis; format: physicochemical; conditions: for Relative humidity of deliquescence (DVS): mono sulfate
Method: The solids with unique XRPD patterns were characterized by DSC, TGA, ^1H NMR, KF and DVS. All XRPD patterns were obtained in the experimental setting as follows: 45 kV, 40 mA, Kα1=1.5406 Å, scan range 2 to 40°, step size 0.0167°, counting time: 15.24 s. DSC and TGA analyses were performed using 10° C./min heating rate over the 20 to 350° C. temperature range.

[6] = Dissolution test of Compound I Form VII in DI water; format: physicochemical; conditions: about 8 mg in 0.5 mL DI water; stirred overnight at room temperature; solid found: free base Form I
Method: A dissolution test of Compound I Form VII (about 8 mg) and 0.5 mL of DI water was performed. The solids were almost completely dissolved at first, and then more solids precipitated out. The slurry was allowed to be stirred overnight at room temperature before XRPD and ^1H NMR analyses, which confirm Compound I free base (Form I).

[7] = Relative stability of Compound I Forms XIV and XV (seeding, heating at about 130° C., XRPD); format: physicochemical; conditions: seeding experiments; Form XV heated at about 130° C. for about 10 minutes gave Form XIV
Method: In another experiment, Compound I FORM XV was heated at about 130° C. for about 10 minutes and cooled to about 21° C. prior to XRPD analysis.

[8] = Stable form screen: solubility in single and binary solvents (HPLC, external standard); format: physicochemical
Method: In order to determine whether other polymorphs of Compound I exist, a stable form screen was conducted. […] As a result, slurries were typically produced in non-polar solvents. Table 1). Slurries were also generated in solvent combinations with n-heptane (Table 2) and cyclohexane (Table 3). In cases where a slurry was formed, Form I was isolated after agitation for 1 day and 3 weeks.

pKa = format: physicochemical
[9] = system: late sodium current (INaL); conditions: as described in WO 2013/006485; cited from earlier work

O=C1c2cc(-c3ccc(OC(F)(F)F)cc3)ccc2OCCN1Cc1ncccn1 [Compound I Form I, 4-(pyrimidin-2-ylmethyl)-7-(4-(trifluoromethoxy)phenyl)-3,4-dihydrobenzo[f][1,4]oxazepin-5(2H)-one]
Form I Solubility mg/g (2 weeks) ([1]; 10% EtOH/water, water activity >0.9): 0.09 mg/g | Form I Solubility mg/g (2 weeks) ([1]; 10% IPA/water, water activity >0.9): 0.10 mg/g | Form I Solubility mg/g (2 weeks) ([1]; 20% EtOH/water, water activity 0.8-0.9): 0.10 mg/g | Form I Solubility mg/g (2 weeks) ([1]; 20% IPA/water, water activity >0.9): 0.18 mg/g | Form I Solubility mg/g (2 weeks) ([1]; 25% IPA/water, water activity >0.9): 0.65 mg/g | Form I Solubility mg/g (2 weeks) ([1]; 30% EtOH/water, water activity 0.8-0.9): 0.49 mg/g | Form I Solubility mg/g (2 weeks) ([1]; 30% IPA/water, water activity >0.9): 4.7 mg/g | Form I Solubility mg/g (2 weeks) ([1]; 35% EtOH/water, water activity 0.8-0.9): 1.3 mg/g | 3 days TGA ([2]; Aw 0.6, 3 days): 14 mg/mL | 3 days TGA ([2]; Aw 0.7, 3 days): 4.5 mg/mL | 14 days TGA ([2]; Aw 0.7, 14 days): 2 mg/mL | 3 days TGA ([2]; Aw 0.8, 3 days): 1.4 mg/mL | 14 days TGA ([2]; Aw 0.8, 14 days): 1 mg/mL | 3 days TGA ([2]; Aw 0.9, 3 days): 0.5 mg/mL | 14 days TGA ([2]; Aw 0.9, 14 days): <1 mg/mL | Solubility (in words) ([2]; Aw below 0.6, only solutions present): extraordinarily high | Relative stability of Forms I and II (in words) ([3]; listed as Form I): the more stable form at below 35 °C

O=C1c2cc(-c3ccc(OC(F)(F)F)cc3)ccc2OCCN1Cc1ncccn1 [Compound I Form II, 4-(pyrimidin-2-ylmethyl)-7-(4-(trifluoromethoxy)phenyl)-3,4-dihydrobenzo[f][1,4]oxazepin-5(2H)-one]
Solubility ([4]; Ethanol/n-heptane (1/4) v/v, 4-6 days, read-out: 4-6 Days Solubility): 32 mg/mL (≈ 77 mM) | Solubility ([4]; MIBK/n-heptane (1/4) v/v, 4-6 days, read-out: 4-6 Days Solubility): 26 mg/mL (≈ 62.6 mM) | Solubility ([4]; MIBK/n-heptane (1/4) v/v, 8-11 days, read-out: 8-11 Day Solubility): 35 mg/mL (≈ 84.3 mM) | Solubility ([4]; THF/n-heptane (1/4) v/v, 4-6 days, read-out: 4-6 Days Solubility): 29 mg/mL (≈ 69.8 mM) | Relative stability of Forms I and II (in words) ([3]; listed as Form II): the more stable form at or above 38 °C

Cc1ccc(S(=O)(=O)O)cc1.O=C1c2cc(-c3ccc(OC(F)(F)F)cc3)ccc2OCCN1Cc1ncccn1 [Compound I Form VII, 4-(pyrimidin-2-ylmethyl)-7-(4-(trifluoromethoxy)phenyl)-3,4-dihydrobenzo[f][1,4]oxazepin-5(2H)-one p-toluenesulfonic acid]
Hygroscopicity by DVS (in words) [5]: moderately hygroscopic | Moisture uptake at 90% RH (DVS) ([5]; 90% RH): about 2.75 wt % | Water adsorbed at 90% RH (DVS) ([5]; 90% RH): about 0.9 molar equivalents | Moisture uptake at 90% RH (DVS) ([5]; 90% RH, listed as Form VII): 2.75 wt % at | Hygroscopicity by DVS (in words) ([5]; listed as Form VII): Moderately | Stability in water (in words) [6]: unstable in water and dissociates in it

O=C1c2cc(-c3ccc(OC(F)(F)F)cc3)ccc2OCCN1Cc1ncccn1.O=S(=O)(O)O [Compound I Form XIV, 4-(pyrimidin-2-ylmethyl)-7-(4-(trifluoromethoxy)phenyl)-3,4-dihydrobenzo[f][1,4]oxazepin-5(2H)-one mono sulfate]
Relative humidity of deliquescence (DVS) ([5]; listed as Compound I FORM XIV): around 70 % RH | Relative humidity of deliquescence (DVS) [5]: about 70 % RH | Relative stability of Forms XIV and XV (in words) [7]: the more stable phase in comparison with Compound I FORM XV

O=C1c2cc(-c3ccc(OC(F)(F)F)cc3)ccc2OCCN1Cc1ncccn1 [Compound I, 4-(pyrimidin-2-ylmethyl)-7-(4-(trifluoromethoxy)phenyl)-3,4-dihydrobenzo[f][1,4]oxazepin-5(2H)-one]
Solubility (mg/g) (3 weeks) ([8]; 2-MeTHF/n-heptane (1:5) v/v, slurry, solid Form I): 6.7 mg/g | Solubility (mg/g) (3 weeks) ([8]; Cyclohexane, slurry, solid Form I): 2.4 mg/g | Solubility (mg/g) (1 day) ([8]; EtOAc/cyclohexane (1:3) v/v, 1 day, slurry, solid Form I): 86 mg/g | Solubility (mg/g) (3 weeks) ([8]; IPA/n-heptane (1:4) v/v, slurry, solid Form I): 20.0 mg/g | Solubility (mg/g) (3 weeks) ([8]; IPA, homogenous): >300 mg/g | Solubility (mg/g) (3 weeks) ([8]; IPE, slurry, solid Form I): 21.5 mg/g | Solubility (mg/g) (3 weeks) ([8]; MTBE/n-heptane (1:2) v/v, slurry, solid Form I): 5.4 mg/g | Solubility (mg/g) (3 weeks) ([8]; MTBE, homogenous): >240 mg/g | Solubility (mg/g) (3 weeks) ([8]; MeCN, homogenous): >350 mg/g | Solubility (mg/g) (3 weeks) ([8]; Toluene/n-heptane (1:3) v/v, slurry, solid Form I): 7.1 mg/g | Solubility (mg/g) (3 weeks) ([8]; Toluene, homogenous): >500 mg/g | Solubility (mg/g) (3 weeks) ([8]; Water, slurry, solid Form I): 0 mg/g | Solubility (mg/g) (3 weeks) ([8]; iPrOAc/n-heptane (1:3) v/v, slurry, solid Form I): 18.9 mg/g | Solubility in organic solvents (in words) ([8]; many organic solvents): highly soluble | Solubility (mg/g) (3 weeks) ([8]; n-Heptane, slurry, solid Form I): 0.9 mg/g | Solubility (mg/g) (3 weeks) ([8]; t-amyl alcohol/n-heptane (1:3) v/v, slurry, solid Form I): 17.5 mg/g | Solubility ([1]; 10% EtOH in water (volume), water activity >0.9, solid found Form I): 0 mg/g | Solubility ([1]; 10% IPA in water (volume), water activity >0.9, solid found Form III): 0 mg/g | Solubility ([1]; 20% EtOH in water (volume), water activity 0.8-0.9, solid found Form III): 0.05 mg/g | Solubility ([1]; 20% IPA in water (volume), water activity >0.9, solid found Form I): 0 mg/g | Solubility ([1]; 25% IPA in water (volume), water activity >0.9, solid found Form III): 0.5 mg/g | Solubility ([1]; 30% EtOH in water (volume), water activity 0.8-0.9, solid found Form I): 0.6 mg/g | pKa (pKa): < 2 | Late sodium current inhibition (in words) [9]: selective late sodium current inhibitor
